Experimental findings from patent publication US9926293B2, “Multivalent RAS binding compounds” (THE TRUSTEES OF COLUMBIA UNIVERSITY IN THE CITY OF NEW YORK, priority 2014, dated 2018) are described below.

The nature of one data set: Microsomal stability. Type of data set: in vitro ADME. The settings on record: mouse liver microsomes, 45 minute incubation. How it is done:
Test compounds (0.5 μM) were incubated at 37° C. for up to 45 minutes in 50 mM of potassium phosphate buffer (pH 7.4) containing microsomal protein (0.5 mg/mL) and an NADPH generating system (0.34 mg/mL β-nicotinamide adenine dinucleotide phosphate (NADP), 1.56 mg/mL glucose-6-phosphate, 1.2 units/mL glucose-6-phosphate dehydrogenase). At 0, 5, 15, 30 and 45 minute intervals an aliquot was taken and quenched with acetonitrile (ACN) containing an internal standard. No-cofactor controls at 45 minutes were prepared. Following completion of the experimentation, the samples were analyzed by LC-MS/MS using a Shimadzu HPLC and an Applied Biosystem AP 14000.
For orientation: Microsomes from liver hold many membrane-bound enzymes, among them those of drug oxidation.

Data set [1] relates to RAS-RAF and RAS-PI3K interaction in BJeLR cells. Description: Immunoprecipitation with HRAS antibody, blot for cRAF and PI3Kgamma. The class given is cell-based. The settings on record: 10% FBS. As to the method:
BJeLR cells were seeded 16 hours prior to use in 10% FBS in DMEM. […] After 6 hours cells were washed twice with ice cold buffer (25 mM tris, 100 mM NaCl, 1 mM TCEP, 5 mM MgCl2, 0.1% tween-20 and 1 protease inhibitor/25 mL). Cells were scrapped, pelleted at 13,000 rpm for 10 minutes at 4° C., then passed through a 26 gauge needle several times. The solution was spun down a second time at 13,000 rpm for 15 minutes at 4° C., to remove unlysed cells and debris. HRAS antibody (Santa cruz, SC-520) was then added to the lysate (1:100) and the solution was rocked at 4° C. for 16 hours. Protein A agrose beads were then added and the solution was rotated at 4° C. for an additional 6 hours. The solutions were spun down at 1500×g for 2 minutes and the supernatant was removed by syringe. The beads were washed twice by this process with buffer, then resuspended in 2.5×SDS.

In another data set the test system is H358 (KRAS^G12C). Kind of data set: Cell viability assay (384-well, Alamar blue). Type of data set: cell-based. To be noted: Homo sapiens, NCI-H358, Table 8, 48 hours. As to the method: (§1) All cell culture assays were incubated at 37° C., 5% CO2 in media containing Dulbecco's Modified Eagle Medium (DMEM) with 10% fetal bovine serum (FBS) and 1% penicillin-streptomycin (PS). 384-well format for EC50 determination: cells were trypsinized, counted, and seeded into 384-well plates at 1,000 cells/well. After 12-16 hours, compounds (as 50 mM stocks in DMSO) were arrayed in an 8- or 16-point dilution series in 384-well polypropylene plates. Compound solutions were transferred at a 1:5 dilution into the assay plates. After 48 hours, a 50% Alamar blue solution was added to a final concentration of 10% Alamar blue. After 6 hours of incubation, fluorescence intensity was determined using a Victor3 plate reader (Perkin Elmer) with a 535 nm excitation filter and a 590 nm emission filter. All compound measurements were performed in triplicate. For experiments performed in 6-well format, cells were trypsinized, counted, and seeded into 6-well plates at 200,000 cells per well 16 h prior to use. Media was then aspirated and replaced with 2 mL of media containing compounds at the indicated concentrations (from 10 mM stocks in DMSO). After 24 hours, cells were trypsinized and viability was determined using Trypan Blue exclusion assay.

A further data set has as its system DLD1 (KRAS^Q61H). Kind of data set: Cell viability assay (384-well, Alamar blue). The class given is cell-based. The settings on record: Homo sapiens, DLD-1, Table 8, 48 hours. As to the method: as §1
For orientation: The colour change of resazurin is a common sign of viable cells or microbes.

In a further data set the test system is H460 (KRAS^Q61H). Description: Cell viability assay (384-well, Alamar blue). Type of data set: cell-based. To be noted: Homo sapiens, NCI-H460, Table 8, 48 hours. How it is done: as §1

Regarding `NC1(C(=O)NCCCn2cc(-c3ccc(OC(F)(F)F)cc3)c3cc(CN4CCN(Cc5c(Cl)cccc5Cl)CC4)ccc32)CCNCC1` [Compound 31MEW44, 4-amino-N-(3-(5-((4-(2,6-dichlorobenzyl)piperazin-1-yl)methyl)-3-(4-(trifluoromethoxy)phenyl)-1H-indol-1-yl)propyl)piperidine-4-carboxamide], in “Microsomal stability”, the compound remaining result is recorded as “all of 31MEW44 remained”. The “co-immunoprecipitated cRAF and PI3K” value in data set [1] was “decreased levels of co-immunoprecipitated cRAF and PI3K”. For the same molecule, the EC50 – broadly, the concentration that produces a half-maximal response – with H358 (KRAS^G12C) was 2.8 µM; in the data set with DLD1 (KRAS^Q61H), 8.8 µM; in the data set with H460 (KRAS^Q61H) it was 4.9 µM.
